The text below walks through data of patent publication US4264590A, “Antibacterial peptide” (Abbott Laboratories, priority 1980, dated 1981).

One experiment deals with Strep. pyrogenes (C 203). Kind of experiment: mouse protection test, CD50 (Table III). Type of experiment: in vivo. To be noted: mice infected i.p. with Strep. pyrogenes (C 203); dosed subcutaneously; 7 days survival; D-cycloserine alone. As to the method: (§1) Charles River mice, weighing approximately 20 g. each, are infected intraperitoneally with 10-100 times the LD of the infecting organism. At predetermined intervals post-infection, e.g., 1 and 5 hours, mice are dosed subcutaneously with graded doses of the halogenated peptide, antibiotic and combination thereof. The number of mice surviving each treatment for 7 days post-infection is observed and the CD50 is calculated. The fractional inhibitory concentration (F.I.C.) for each combination is calculated in the usual manner.
(§2) In this table, the following infecting microorganisms were used:
Strep. pyrogenes (C 203).
(§3) The infecting organisms are listed by the above code; the compounds are listed by their Example number. In all instances, the dipeptide and D-cycloserine were tested at a ratio of 10:1. The CD50 combination column lists only the amount of peptide present; the D-cycloserine amount is 10% of the listed amount.

The test system of another experiment is E. coli 6880. Kind of experiment: two-fold agar dilution assay, M.I.C. Type of experiment: cell-based. To be noted: for MIC: Escherichia coli, substance alone, agar dilution, read-out: minimum inhibitory concentration (M.I.C.). From the text:
(§4) In a two-fold agar dilution assay with E. coli (Juhl) and E. coli 6880 as test organisms, compounds of Examples 1 and 2 show a minimum inhibitory concentration (M.I.C.) of >800 ppm. […] The combination of the new peptide with D-cycloserine produces the following M.I.C. test results.

Experiment [1] deals with E. coli (Juhl). The experiment can be described thus: two-fold agar dilution assay, M.I.C. Type of experiment: cell-based. The conditions noted are these: for MIC: Escherichia coli, substance alone, agar dilution, read-out: minimum inhibitory concentration (M.I.C.).
Excerpt: as §4

The subject of a further experiment is E. coli (305-101). Kind of experiment: mouse protection test, CD50 (Table III). The format is in vivo. To be noted: mice infected i.p. with E. coli (305-101); dosed subcutaneously; 7 days survival; D-cycloserine alone. As to the method:
as §1, §2, §3

Another experiment has as its system S. aureus (Smith). The experiment can be described thus: mouse protection test, CD50 (Table III). The format is in vivo. The conditions noted are these: for F.I.C. Index / CD50 (mg/kg) Combination: S. aureus (Smith) in mice, dipeptide:D-cycloserine 10:1; for CD50 (mg/kg) Combination: amount of peptide only listed, D-cycloserine is 10% of it; for CD50 (mg/kg) Peptide: mice infected i.p. with S. aureus (Smith), dosed subcutaneously, 7 days survival, peptide alone. As to the method: as §1, §2, §3

In experiment [2] the test system is E. coli (Juhl). Kind of experiment: serial dilution in synthetic medium in test tubes, MIC and F.I.C. index (Table II). Type of experiment: cell-based. The conditions noted are these: for MIC: Escherichia coli. As for the experimental part:
The halogenated peptides alone, the antibiotic alone or mixtures of the halogenated peptides and selected antibiotics are prepared in sterile concentrated aqueous solutions at the desired ratios. Serial dilutions are made to give a range of concentrations of the test substances. Samples of the dilutions are mixed with an appropriate sterile synthetic medium in test tubes. The tubes are then inoculated with an appropriate test organism and incubated at 35°-37° C. for 16-20 hours. Minimum inhibitory concentrations, i.e., that concentration which inhibits visible growth, are read and the fractional inhibitory concentration indices (F.I.C.) are calculated. In all instances, E. coli (Juhl) was used as the infecting microorganism.

The subject of experiment [3] is E. coli (Juhl). Kind of experiment: mouse protection test, CD50 (Table III). Type of experiment: in vivo. As for the experimental part:
as §1, §2, §3

The mark [4] stands for this setting: peptide:D-cycloserine ratio 1:1.
Setting [5] is: peptide:D-cycloserine ratio 1:8.
Where [6] appears, read: peptide:D-cycloserine ratio 8:1.
The mark [7] stands for this setting: combination with D-cycloserine, ratio Pep/Antib. 1:1.
The mark [8] stands for this setting: combination with D-cycloserine, ratio Pep/Antib. 1:8.
Setting [9] is: combination with cephalothin, ratio Pep/Antib. 1:1.
Where [10] appears, read: combination with carbencillin, ratio Pep/Antib. 1:1.
Setting [11] is: combination with carbencillin, ratio Pep/Antib. 1:8.
[12] abbreviates: peptide alone, E. coli (Juhl), 35-37° C., 16-20 hours.
[13] abbreviates: combination with D-cycloserine, ratio Pep/Antib. 8:1.

The structures appear in SMILES notation. Several values for one entry are separate records, joined by “and”; a condition that tells them apart may be missing. Identical values can stand only once.

With `N[C@@H]1CON=C1O` [D-cycloserine, reference compound], the “CD50 (mg/kg) Cycloserine” value with Strep. pyrogenes (C 203) is more than 100 mg/kg; in the experiment with E. coli (305-101) it was 63 mg/kg. Also, the MIC in the experiment with E. coli 6880 stood at 6.2 µg/mL; with E. coli (Juhl) [1] it was 12.5 µg/mL.

For `C[C@H](N)C(=O)N[C@H](CCl)C(=O)O` [Example 2, L-alanyl-β-chloro-D-alanine], the MIC in the experiment with E. coli 6880 was more than 800 µg/mL; in the experiment on E. coli (Juhl) [1], more than 800 µg/mL; in the experiment on E. coli (Juhl) [2] (combination with D-cycloserine, ratio Pep/Antib. 1:1, read-out: MIC ppm Pep/Antib., peptide part) it was 0.78 µg/mL; in the experiment with E. coli (Juhl) [2] (combination with D-cycloserine, ratio Pep/Antib. 1:8, read-out: MIC ppm Pep/Antib., peptide part), 0.2 µg/mL; in the experiment on E. coli (Juhl) [2] (combination with cephalothin, ratio Pep/Antib. 1:1, read-out: MIC ppm Pep/Antib., peptide part), 3.1 µg/mL; in the experiment with E. coli (Juhl) [2] (peptide alone, E. coli (Juhl), 35-37° C., 16-20 hours, read-out: MIC ppm Peptide) it was more than 800 µg/mL. In addition, the “M.I.C. of combination, D-cycloserine part” value with E. coli 6880 (setting [4]) is 0.78 ppm; in the experiment on E. coli 6880 (setting [5]) it was 0.78 ppm; with E. coli 6880 (setting [6]), 0.39 ppm; in the experiment on E. coli (Juhl) [1] (setting [4]), 0.78 ppm; with E. coli (Juhl) [1] (setting [5]), 1.56 ppm; in the experiment with E. coli (Juhl) [1] (setting [6]), 0.78 ppm. Further, the “M.I.C. of combination, peptide part” value with E. coli 6880 (setting [4]) came out at 0.78 ppm; with E. coli 6880 (setting [5]) it was 0.1 ppm; in the experiment on E. coli 6880 (setting [6]) it was 3.1 ppm; in the experiment on E. coli (Juhl) [1] (setting [4]), 0.78 ppm; with E. coli (Juhl) [1] (setting [5]) it was 0.2 ppm; in the experiment on E. coli (Juhl) [1] (setting [6]), 0.62 ppm. The “F.I.C. Index” value in the experiment on S. aureus (Smith) was 0.34; with E. coli (Juhl) [2] (setting [7]), 0.06; with E. coli (Juhl) [2] (setting [8]), 0.12; in the experiment on E. coli (Juhl) [2] (setting [9]) it was 0.50. The “CD50 (mg/kg) Combination” value in the experiment with S. aureus (Smith) was 35 mg/kg. Moreover, the “CD50 (mg/kg) Peptide” value in the experiment with S. aureus (Smith) came to 170 mg/kg. The “MIC ppm Pep/Antib., antibiotic part” value came to 0.78 ppm with E. coli (Juhl) [2] (setting [7]), 1.56 ppm in the experiment with E. coli (Juhl) [2] (setting [8]) and 3.1 ppm with E. coli (Juhl) [2] (setting [9]).

With `CC(C)[C@H](N)C(=O)N[C@H](CF)C(=O)O` [Example 3, L-Val-βF-D-Ala], in the experiment with S. aureus (Smith), the “F.I.C. Index” value was 0.15, the “CD50 (mg/kg) Combination” value was determined as 1.0 mg/kg and the “CD50 (mg/kg) Peptide” value is reported as 10 mg/kg.

Regarding `CC(C)C[C@H](N)C(=O)N[C@H](CF)C(=O)O` [Example 4, L-Leu-βF-D-Ala], the “F.I.C. Index” value is 0.25 in the experiment with S. aureus (Smith); 0.41 in the experiment on E. coli (Juhl) [3] (E. coli (Juhl) in mice, dipeptide:D-cycloserine 10:1); 0.008 with E. coli (Juhl) [2] (setting [7]); 0.06 in the experiment on E. coli (Juhl) [2] (setting [8]); 0.25 in the experiment on E. coli (Juhl) [2] (setting [10]); 2.0 with E. coli (Juhl) [2] (setting [11]). Besides, the “CD50 (mg/kg) Combination” value stood at 1.6 mg/kg with S. aureus (Smith) and 10.1 mg/kg in the experiment on E. coli (Juhl) [3] (E. coli (Juhl) in mice, dipeptide:D-cycloserine 10:1, amount of peptide only listed, D-cycloserine is 10% of it). Moreover, the “CD50 (mg/kg) Peptide” value in the experiment with S. aureus (Smith) is 7.4 mg/kg; in the experiment on E. coli (Juhl) [3] (mice infected i.p. with E. coli (Juhl), dosed subcutaneously, 7 days survival, peptide alone) it was 25.9 mg/kg. Besides, the “MIC ppm Pep/Antib., antibiotic part” value in the experiment with E. coli (Juhl) [2] (setting [7]) turned out to be 0.1 ppm; in the experiment on E. coli (Juhl) [2] (setting [8]), 0.78 ppm; in the experiment on E. coli (Juhl) [2] (setting [10]), 1.56 ppm; in the experiment with E. coli (Juhl) [2] (setting [11]) it was 12.5 ppm. Further, the “MIC ppm Pep/Antib., peptide part” value in the experiment on E. coli (Juhl) [2] (setting [7]) was 0.1 ppm; in the experiment on E. coli (Juhl) [2] (setting [8]) it was 0.1 ppm; with E. coli (Juhl) [2] (setting [10]), 1.56 ppm; in the experiment on E. coli (Juhl) [2] (setting [11]), 1.56 ppm. For the same compound, the “MIC ppm Peptide” value in the experiment with E. coli (Juhl) [2] (setting [12]) is > 200 ppm and > 100 ppm.

With `N[C@@H](Cc1ccccc1)C(=O)N[C@H](CF)C(=O)O` [Example 5, L-Phe-βF-D-Ala], in the experiment with S. aureus (Smith), the “F.I.C. Index” value turned out to be 0.99, the “CD50 (mg/kg) Combination” value stood at 13.6 mg/kg and the “CD50 (mg/kg) Peptide” value came to 14.4 mg/kg.

As to `NCCCC[C@H](N)C(=O)N[C@H](CF)C(=O)O` [Example 6, L-Lys-βF-D-Ala], in the experiment with S. aureus (Smith), the “F.I.C. Index” value is 0.08 and 0.13; the “CD50 (mg/kg) Combination” value is 6.8 mg/kg and 4.0 mg/kg.

Turning to `O=C(N[C@H](CF)C(=O)O)[C@@H]1CCCN1` [Example 7, L-Pro-βF-D-Ala], in the experiment on S. aureus (Smith), the “F.I.C. Index” value amounted to 0.35, the “CD50 (mg/kg) Combination” value amounted to 3.7 mg/kg and the “CD50 (mg/kg) Peptide” value was 12.2 mg/kg.

With `N[C@@H](CO)C(=O)N[C@H](CF)C(=O)O` [Example 8, L-Ser-βF-D-Ala], in the experiment on S. aureus (Smith), the “F.I.C. Index” value is recorded as 0.13, the “CD50 (mg/kg) Combination” value stood at 5.2 mg/kg and the “CD50 (mg/kg) Peptide” value is recorded as 48 mg/kg. In the experiment with E. coli (Juhl) [2] (setting [7]), the “F.I.C. Index” value is on record as 0.008; the “MIC ppm Pep/Antib., antibiotic part” value is 0.1 ppm; the “MIC ppm Pep/Antib., peptide part” value turned out to be 0.1 ppm. For the same compound, in the experiment on E. coli (Juhl) [2] (setting [8]), the “F.I.C. Index” value amounted to 0.03; the “MIC ppm Pep/Antib., antibiotic part” value was determined as 0.39 ppm; the “MIC ppm Pep/Antib., peptide part” value is 0.05 ppm. Moreover, in the experiment with E. coli (Juhl) [2] (setting [13]), the “F.I.C. Index” value is recorded as 0.004; the “MIC ppm Pep/Antib., antibiotic part” value amounted to 0.05 ppm; the “MIC ppm Pep/Antib., peptide part” value came out at 0.39 ppm. In addition, the “MIC ppm Peptide” value in the experiment on E. coli (Juhl) [2] (setting [12]) is more than 800 ppm.
